This is an account of results in ChEMBL document CHEMBL1155803 (Bioorg Med Chem, 2008).

A short description of assay [1]: Antagonist activity at peripheral muscarinic M3 receptor in guinea pig longitudinal ileum assessed as effect on arecaidin propargyl ester-induced contraction after 1 hr. The assay is classed as functional, tissue-based, Cavia porcellus.
Assay [2] concerns the target T1, Muscarinic acetylcholine receptor M1 (Homo sapiens, UniProt P11229).
T1 sequence (P11229 whole entry): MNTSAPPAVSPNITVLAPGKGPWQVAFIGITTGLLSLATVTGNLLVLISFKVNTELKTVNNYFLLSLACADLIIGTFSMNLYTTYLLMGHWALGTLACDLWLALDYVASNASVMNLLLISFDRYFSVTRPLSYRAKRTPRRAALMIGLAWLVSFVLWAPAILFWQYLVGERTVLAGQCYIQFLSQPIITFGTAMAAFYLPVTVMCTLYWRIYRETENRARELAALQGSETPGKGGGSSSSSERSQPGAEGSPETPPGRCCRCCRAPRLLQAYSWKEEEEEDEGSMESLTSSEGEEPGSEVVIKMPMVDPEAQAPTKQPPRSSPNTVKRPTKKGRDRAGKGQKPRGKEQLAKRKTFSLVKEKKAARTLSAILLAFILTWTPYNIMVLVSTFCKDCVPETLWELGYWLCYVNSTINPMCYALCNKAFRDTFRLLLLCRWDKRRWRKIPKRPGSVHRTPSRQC
The assay can be described thus: Displacement of [3H]N-methylscopolamine chloride from human cloned muscarinic M1 receptor expressed in CHOK1 cells. Format: cell-based, CHO-K1.

Assay [3] has as its target T2, Muscarinic acetylcholine receptor M2 (Homo sapiens, UniProt P08172).
T2 sequence (P08172 whole entry): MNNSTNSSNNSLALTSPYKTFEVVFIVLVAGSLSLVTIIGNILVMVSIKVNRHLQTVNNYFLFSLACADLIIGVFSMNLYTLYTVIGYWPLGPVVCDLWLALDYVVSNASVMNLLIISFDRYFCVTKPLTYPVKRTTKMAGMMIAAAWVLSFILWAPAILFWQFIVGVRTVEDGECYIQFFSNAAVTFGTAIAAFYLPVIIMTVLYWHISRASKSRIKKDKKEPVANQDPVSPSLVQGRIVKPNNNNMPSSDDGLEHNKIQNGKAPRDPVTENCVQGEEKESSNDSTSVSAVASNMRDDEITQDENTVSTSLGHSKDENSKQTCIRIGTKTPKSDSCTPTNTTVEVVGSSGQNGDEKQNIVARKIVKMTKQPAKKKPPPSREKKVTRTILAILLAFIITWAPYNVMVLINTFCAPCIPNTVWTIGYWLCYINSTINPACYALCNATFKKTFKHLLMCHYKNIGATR
The assay can be described thus: Displacement of [3H]N-methylscopolamine chloride from human cloned muscarinic M2 receptor expressed in CHOK1 cells. The assay is classed as cell-based, CHO-K1.

The target in assay [4] is Muscarinic acetylcholine receptor M3 (Homo sapiens, UniProt P20309). The assay can be described thus: Displacement of [3H]N-methylscopolamine chloride from human cloned muscarinic M3 receptor expressed in CHOK1 cells. The assay is classed as cell-based, CHO-K1.
Chain of Muscarinic acetylcholine receptor M3 (P20309 whole entry): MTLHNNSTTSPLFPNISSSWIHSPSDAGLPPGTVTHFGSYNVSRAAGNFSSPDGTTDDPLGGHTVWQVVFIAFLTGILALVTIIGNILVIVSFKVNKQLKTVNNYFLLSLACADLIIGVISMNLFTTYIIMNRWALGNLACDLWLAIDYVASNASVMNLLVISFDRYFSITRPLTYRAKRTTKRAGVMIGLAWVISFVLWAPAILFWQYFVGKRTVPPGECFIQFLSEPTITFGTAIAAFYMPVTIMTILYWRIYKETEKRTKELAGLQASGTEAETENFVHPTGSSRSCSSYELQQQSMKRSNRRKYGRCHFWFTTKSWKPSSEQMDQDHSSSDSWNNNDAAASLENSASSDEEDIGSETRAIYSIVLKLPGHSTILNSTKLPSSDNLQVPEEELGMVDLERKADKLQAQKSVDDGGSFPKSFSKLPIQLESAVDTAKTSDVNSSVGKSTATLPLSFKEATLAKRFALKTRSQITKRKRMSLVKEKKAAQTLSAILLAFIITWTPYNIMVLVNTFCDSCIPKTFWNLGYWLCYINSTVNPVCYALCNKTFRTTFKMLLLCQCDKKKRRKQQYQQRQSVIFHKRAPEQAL
Assay [5] has as its target T3, Muscarinic acetylcholine receptor M4 (Homo sapiens, UniProt P08173).
T3 sequence (P08173 whole entry): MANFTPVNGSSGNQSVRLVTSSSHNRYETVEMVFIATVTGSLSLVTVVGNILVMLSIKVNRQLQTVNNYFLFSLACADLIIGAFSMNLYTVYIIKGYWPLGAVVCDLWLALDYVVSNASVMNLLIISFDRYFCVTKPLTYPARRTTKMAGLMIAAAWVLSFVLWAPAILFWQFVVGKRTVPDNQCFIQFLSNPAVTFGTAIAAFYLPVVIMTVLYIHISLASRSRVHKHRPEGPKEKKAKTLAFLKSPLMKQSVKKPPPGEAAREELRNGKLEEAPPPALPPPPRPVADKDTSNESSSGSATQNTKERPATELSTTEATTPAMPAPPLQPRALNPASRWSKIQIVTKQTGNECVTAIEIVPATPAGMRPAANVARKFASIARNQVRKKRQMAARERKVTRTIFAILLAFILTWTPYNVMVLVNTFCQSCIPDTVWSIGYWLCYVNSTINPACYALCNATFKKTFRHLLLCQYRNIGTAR
Put plainly: Displacement of [3H]N-methylscopolamine chloride from human cloned muscarinic M4 receptor expressed in CHOK1 cells. The assay is classed as cell-based, CHO-K1.

Assay [6] is described as follows: Antagonist activity at peripheral muscarinic M2 receptor in guinea pig left atrium assessed as effect on arecaidin propargyl ester-induced contraction after 1 hr. Format: functional, tissue-based. Particulars: Cavia porcellus, Cardiac atrium, read-out: pA2 (converted).
The nature of assay [7]: Antagonist activity at peripheral muscarinic M4 receptor in rabbit vas deferens assessed as effect on McN-A-343-induced contraction after 1 hr. Format: functional, tissue-based. Particulars: Oryctolagus cuniculus, read-out: pA2 (converted).

With `CN(C)[C@@H]1CCCC[C@H]1N(C)CC(=O)N1c2ccccc2C(=O)Nc2cccnc21.O=C(O)C(=O)O.O=C(O)C(=O)O`, the pA2 in assay [1] came to 7.76.

For the compound `CN1CCN(CC(=O)N2c3ccccc3C(=O)Nc3cccnc32)[C@@H]2CCCC[C@@H]21` (relative stereo), the Ki in assay [2] is 1450 nM; in assay [3], 646 nM; in assay [4], more than 10 µM; in assay [5], 2450 nM. Moreover, the values for the Kb in assay [6] and in assay [7] were 741 nM and 60.3 nM, respectively. Further, the pA2 in assay [1] was determined as 6.01.

`CN(C)[C@H]1CCCC[C@H]1N(C)CC(=O)N1c2ccccc2C(=O)Nc2cccnc21.O=C(O)C(=O)O.O=C(O)C(=O)O`: the pA2 in assay [1] stood at 7.64.

`CN(C)[C@@H]1CCCC[C@@H]1N(C)CC(=O)N1c2ccccc2C(=O)Nc2cccnc21.O=C(O)C(=O)O.O=C(O)C(=O)O`: the pA2 in assay [1] was found to be 7.57.

Turning to `CN(C)[C@H]1CCCC[C@@H]1N(C)CC(=O)N1c2ccccc2C(=O)Nc2cccnc21.O=C(O)C(=O)O.O=C(O)C(=O)O`, the pA2 in assay [1] came to 7.58.

For `CN1CCN(CC(=O)N2c3ccccc3C(=O)Nc3cccnc32)[C@@H]2CCCC[C@H]21` (relative stereo), the Ki in assay [2] was 2290 nM; in assay [3], 1000 nM; in assay [4], more than 10 µM; in assay [5], 6610 nM. Besides, the Kb is 87.1 nM in assay [6] and 79.4 nM in assay [7]. The pA2 in assay [1] was determined as 6.47.

Take `CN1CCN(CC(=O)N2c3ccccc3C(=O)Nc3cccnc32)CC1` [PIRENZEPINE]: the Kb in assay [6] was 339 nM; in assay [7] it was 8.91 nM. Further, the pA2 in assay [1] is listed as 6.88.

Turning to `CN(CCCCCCCCN(C)CCCCCCN(CC(=O)N1c2ccccc2C(=O)Nc2cccnc21)CC(=O)N1c2ccccc2C(=O)Nc2cccnc21)CCCCCCNCC(=O)N1c2ccccc2C(=O)Nc2cccnc21` [TRIPITRAMINE], the Ki was 3.55 nM in assay [2], 0.148 µM in assay [4] and 11.5 nM in assay [5]. The pA2 in assay [1] came to 6.55. In addition, the Kb in assay [7] was 11.2 nM.
